Assay results from patent US10626105B2, “Deuterium-substituted pyridin- and pyrimidin-2-yl-methylamine compounds” (Auspex Pharmaceuticals, Inc., priority 2016, dated 2020).

Test: In vitro human liver microsomal stability assay
Format: in vitro ADME
Conditions: human liver microsomes 0.5 mg/mL protein, NADPH 2 mM, pH 7.4, 1 μM test compound, 37 °C, 0-45 min; change relative to non-deuterated (d0) comparative compound
Experimental: In Vitro Liver Microsomal Stability Assay
Human liver microsomal stability assays were conducted at 0.5 mg per mL liver microsome protein with NADPH (2 mM, pH 7.4). Test compounds were prepared as solutions in DMSO and added to the assay mixture (1 μM, final concentration in incubation) to be incubated at 37±1° C. Reactions were initiated with the addition of cofactor and are stopped at 0, 5, 15, 30, and 45 min after cofactor addition with stop reagent (acetonitrile). After quenching, plates containing samples are vibrated for 10 min (600 rpm/min) and then centrifuged at 5594 g for 15 min. Supernatant fractions were analyzed by LC-MS/MS to determine the percent remaining and estimate the degradation half-life of the test compounds.

**Q.** With [2H]C(NCc1ncc(C)cn1)C1(F)C([2H])([2H])C([2H])([2H])N(C(=O)c2ccc(F)c(Cl)c2)C([2H])([2H])C1([2H])[2H] (centres unmarked) [Example 13, ([1-[(3-chloro-4-fluorophenyl)carbonyl]-4-fluoro(d8)piperidin-4-yl](d)methyl)[(5-methylpyrimidin-2-yl)methyl]amine] as the molecule, how does the “Clearance % change over d0” value read?
**A.** −0.9%

**Q.** And the “Half-life % change over d0” value?
**A.** 0.9%

**Q.** With Cc1cnc(CNCC2(F)CCN(C(=O)c3ccc(F)c(Cl)c3)CC2)nc1 [Example 8, (3-chloro-4-fluorophenyl)(4-fluoro-4-((((5-methylpyrimidin-2-yl)methyl)amino)methyl)piperidin-1-yl)methanone, reference compound] as the molecule, how does the “Clearance % change over d0” value read?
**A.** 0%

**Q.** What about the “Half-life % change over d0” value of the same molecule?
**A.** 0%

**Q.** What does the source list for [2H]C([2H])(NCc1ncc(C)cn1)C1(F)CCN(C(=O)c2ccc(F)c(Cl)c2)CC1 [Example 12, (3-chloro-4-fluorophenyl)(4-fluoro-4-((((5-methylpyrimidin-2-yl)methyl)amino)methyl-d2)piperidin-1-yl)methanone]?
**A.** Clearance % change over d0: 2.1%; Half-life % change over d0: −2.1%

**Q.** What does the source list for [2H]C([2H])(NCc1ccc(C)cn1)C1(F)CCN(C(=O)c2ccc(F)c(Cl)c2)CC1 [Example 2, (3-chloro-4-fluorophenyl)(4-fluoro-4-((((5-methylpyridin-2-yl)methyl)amino)methyl-d2)piperidin-1-yl)methanone]?
**A.** Clearance % change over d0: −7.5%; Half-life % change over d0: 8.4%

**Q.** With [2H]C([2H])([2H])c1cnc(CNCC2(F)CCN(C(=O)c3ccc(F)c(Cl)c3)CC2)nc1 [Example 10, (3-chloro-4-fluorophenyl)(4-fluoro-4-((((5-(methyl-d3)pyrimidin-2-yl)methyl)amino)methyl)piperidin-1-yl)methanone] as the molecule, how does the “Clearance % change over d0” value read?
**A.** 8.4%

**Q.** And the “Half-life % change over d0” value?
**A.** −7.7%

**Q.** Which results are given for [2H]C([2H])(NCC1(F)CCN(C(=O)c2ccc(F)c(Cl)c2)CC1)c1ncc(C)cn1 [Example 9, (3-chloro-4-fluorophenyl)(4-fluoro-4-((((5-methylpyrimidin-2-yl)methyl-d2)amino)methyl)piperidin-1-yl)methanone]?
**A.** Clearance % change over d0: 3.7%; Half-life % change over d0: −3.5%

**Q.** What does the source list for [2H]C([2H])(NCC1(F)CCN(C(=O)c2ccc(F)c(Cl)c2)CC1)c1ccc(C)cn1 [Example 5, (3-chloro-4-fluorophenyl)(4-fluoro-4-((((5-methylpyridin-2-yl)methyl-d2)amino)methyl)piperidin-1-yl)methanone]?
**A.** Clearance % change over d0: −6.7%; Half-life % change over d0: 7.2%

**Q.** What does the source list for [2H]C([2H])([2H])c1ccc(C([2H])([2H])NC([2H])([2H])C2(F)CCN(C(=O)c3ccc(F)c(Cl)c3)CC2)nc1 [Example 6, (3-chloro-4-fluorophenyl)(4-fluoro-4-((((5-(methyl-d3)pyridin-2-yl)methyl-d2)amino)methyl-d2)piperidin-1-yl)methanone]?
**A.** Clearance % change over d0: −9.1%; Half-life % change over d0: 10.0%

**Q.** With Cc1ccc(CNCC2(F)CCN(C(=O)c3ccc(F)c(Cl)c3)CC2)nc1 [Example 1, (3-chloro-4-fluorophenyl)(4-fluoro-4-((((5-methylpyridin-2-yl)methyl)amino)methyl)piperidin-1-yl)methanone, reference compound] as the molecule, how does the “Clearance % change over d0” value read?
**A.** 0%

**Q.** What about the “Half-life % change over d0” value of the same molecule?
**A.** 0%

**Q.** With [2H]C([2H])([2H])c1cnc(C([2H])([2H])NCC2(F)CCN(C(=O)c3ccc(F)c(Cl)c3)CC2)nc1 [Example 11, (3-chloro-4-fluorophenyl)(4-fluoro-4-((((5-(methyl-d3)pyrimidin-2-yl)methyl-d2)amino)methyl)piperidin-1-yl)methanone] as the molecule, how does the “Clearance % change over d0” value read?
**A.** 5.5%

**Q.** And the “Half-life % change over d0” value?
**A.** −5.2%

**Q.** For [2H]C([2H])([2H])c1ccc(C([2H])([2H])NCC2(F)CCN(C(=O)c3ccc(F)c(Cl)c3)CC2)nc1 [Example 4, (3-chloro-4-fluorophenyl)(4-fluoro-4-((((5-(methyl-d3)pyridin-2-yl)methyl-d2)amino)methyl)piperidin-1-yl)methanone], which “Clearance % change over d0” value is on record?
**A.** −5.1%

**Q.** What about the “Half-life % change over d0” value of the same molecule?
**A.** 5.4%

**Q.** What does the source list for [2H]C([2H])([2H])c1ccc(CNCC2(F)CCN(C(=O)c3ccc(F)c(Cl)c3)CC2)nc1 [Example 3, (3-chloro-4-fluorophenyl)(4-fluoro-4-((((5-(methyl-d3)pyridin-2-yl)methyl)amino)methyl)piperidin-1-yl)methanone]?
**A.** Clearance % change over d0: −5. %; Half-life % change over d0: 5.6%

**Q.** With [2H]C(NCc1ccc(C)cn1)C1(F)C([2H])([2H])C([2H])([2H])N(C(=O)c2ccc(F)c(Cl)c2)C([2H])([2H])C1([2H])[2H] (centres unmarked) [Example 7, ([1-[(3-chloro-4-fluorophenyl)carbonyl]-4-fluoro(d8)piperidin-4-yl](d)methyl)[(5-methylpyridin-2-yl)methyl]amine] as the molecule, how does the “Clearance % change over d0” value read?
**A.** −5.8%

**Q.** What about the “Half-life % change over d0” value of the same molecule?
**A.** 6.2%
